The values below come from patent US9302003B2, “Compositions comprising a radiosensitizer and an anti-cancer agent and methods of uses thereof” (priority 2009, dated 2016).

This assay concerns F98 glioma. The assay is described as follows: Surviving assay in Fischer rats implanted with F98 glioma, intra carotid drug delivery with or without Gamma Knife irradiation. The class given is in vivo. The note with it: F98 glioma-bearing Fischer rats, 1 ml/rat intra-carotid 10 days after implantation; LipoGold with 15 Gy Gamma Knife 8 h later; FIG. 6.

`N.N.[Cl][Pt][Cl]` [cisplatin, cis-diammineplatinum(II) dichloride]: the “life span / surviving time” value is on record as “died before sham animals”.

Turning to `O=C1[O][Pt]2([NH][C@@H]3CCCC[C@H]3[NH]2)[O]C1=O` [oxaliplatin], the “life span / surviving time” value was “short life span, similar to sham animals”.
